# According to patent publication US20250282760A1 (Merck Sharp & Dohme LLC, priority 2022, published 2025):
# pIC50: −log10 of the molar value.
# Target: T1, human OX2R (Homo sapiens, UniProt O43614)
# T1 construct: expressed in transfected cells; host or cells: Chinese hamster ovary (CHO) cells, kept under G418 selection
# T1 sequence (O43614 1-444): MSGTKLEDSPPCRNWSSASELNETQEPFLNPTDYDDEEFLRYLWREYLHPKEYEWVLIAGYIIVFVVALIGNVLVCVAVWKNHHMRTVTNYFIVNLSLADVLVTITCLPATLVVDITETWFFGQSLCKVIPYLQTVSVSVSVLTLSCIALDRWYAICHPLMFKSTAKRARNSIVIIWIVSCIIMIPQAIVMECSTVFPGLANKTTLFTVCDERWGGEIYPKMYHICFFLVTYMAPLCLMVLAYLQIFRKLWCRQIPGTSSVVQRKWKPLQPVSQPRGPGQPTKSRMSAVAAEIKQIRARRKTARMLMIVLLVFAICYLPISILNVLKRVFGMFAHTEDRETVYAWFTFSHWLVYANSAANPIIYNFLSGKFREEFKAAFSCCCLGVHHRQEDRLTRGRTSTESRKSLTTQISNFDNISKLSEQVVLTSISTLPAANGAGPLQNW
# Test: IPOne (IP-1 accumulation) assay of orexin receptor agonist activity in CHO cells expressing human OX2R
# Type: cell-based
# Settings: for pIC50: CHO cells expressing human OX2R, IP-One assay, 2 hours incubation, four parameter logistic fit, read-out: hOX2R_IP IC50; for Emax: CHO, percent activity at maximum tested concentration, relative to reference compound at 1 uM (100% activity) for human OX2R
smiles,measurement,value
"O=C(NCc1ccc2ccccc2c1)C1CN(S(=O)(=O)c2ccccc2)CCN1C(=O)c1cccs1 (centres unmarked) [Example 6, N-(naphthalen-2-ylmethyl)-4-(phenylsulfonyl)-1-(thiophene-2-carbonyl)piperazine-2-carboxamide]",pIC50,5.65
same,Emax,94.3%
"CC(C)C(=O)N1C(C)CN(S(=O)(=O)c2ccccc2)CC1C(=O)NCc1ccc(-c2cccnc2)cc1 (centres unmarked) [Example 42-2, 1-isobutyryl-6-methyl-4-(phenylsulfonyl)-N-(4-(pyridin-3-yl)benzyl)piperazine-2-carboxamide]",pIC50,5.99
same,Emax,20.6%
"COc1cccc(S(=O)(=O)N2CCN(C(=O)c3cccs3)C(C(=O)NCc3ccc4ccccc4c3)C2)c1 (centres unmarked) [Example 89-8, 4-[(3-methoxyphenyl)sulfonyl]-N-[(naphthalen-2-yl)methyl]-1-(thiophene-2-carbonyl)piperazine-2-carboxamide]",pIC50,5.06
same,Emax,75.9%
"CC(C)C(=O)N1[C@H](C)CN(S(=O)(=O)c2ccccc2)C[C@@H]1C(=O)NCc1ccc(-c2ccco2)c(F)c1 (relative stereo) [Example 26, cis-N-(3-fluoro-4-(furan-2-yl)benzyl)-1-isobutyryl-6-methyl-4-(phenylsulfonyl)piperazine-2-carboxamide]",pIC50,7.95
same,Emax,100%
"CC(=O)N1CCN(S(=O)(=O)c2ccccc2)CC1C(=O)NCc1ccc2ccccc2c1 (centres unmarked) [Example 11, 1-acetyl-N-(naphthalen-2-ylmethyl)-4-(phenylsulfonyl)piperazine-2-carboxamide]",pIC50,4.46
same,Emax,81.6%
"CC(C)C(=O)N1[C@H](C)CN(S(=O)(=O)c2ccccc2)C[C@@H]1C(=O)NCc1ccc(-n2cccn2)cc1 (relative stereo) [Example 19-9, cis-N-(4-(1H-pyrazol-1-yl)benzyl)-1-isobutyryl-6-methyl-4-(phenylsulfonyl)piperazine-2-carboxamide]",pIC50,6.39
same,Emax,99.2%
"O=C(NCc1ccc2ccccc2c1)C1CN(S(=O)(=O)c2ccccc2)CCN1C(=O)c1nccs1 (centres unmarked) [Example 10-7, N-(naphthalen-2-ylmethyl)-4-(phenylsulfonyl)-1-(thiazole-2-carbonyl)piperazine-2-carboxamide]",pIC50,5.73
same,Emax,98.9%
"N#Cc1cccc(S(=O)(=O)N2CCN(C(=O)c3cccs3)C(C(=O)NCc3ccc4ccccc4c3)C2)c1 (centres unmarked) [Example 89-6, 4-[(3-cyanophenyl)sulfonyl]-N-[(naphthalen-2-yl)methyl]-1-(thiophene-2-carbonyl)piperazine-2-carboxamide]",pIC50,5.22
same,Emax,67.5%
"O=C(NCc1ccc2ccccc2c1)C1CN(S(=O)(=O)c2cccc(F)c2)CCN1C(=O)c1cccs1 (centres unmarked) [Example 89-10, 4-[(3-fluorophenyl)sulfonyl]-N-[(naphthalen-2-yl)methyl]-1-(thiophene-2-carbonyl)piperazine-2-carboxamide]",pIC50,5.28
same,Emax,83.6%
"CCC(=O)N1CCN(S(=O)(=O)c2ccccc2)CC1C(=O)NCc1ccc2ccccc2c1 (centres unmarked) [Example 10-2, N-(naphthalen-2-ylmethyl)-4-(phenylsulfonyl)-1-propionylpiperazine-2-carboxamide]",pIC50,5.05
same,Emax,97.4%
"CC(C)C(=O)N1[C@H](C)CN(S(=O)(=O)c2ccccc2)C[C@@H]1C(=O)NCc1ccc(-n2nccn2)cc1 (relative stereo) [Example 19-7, cis-N-(4-(2H-1,2,3-triazol-2-yl)benzyl)-1-isobutyryl-6-methyl-4-(phenylsulfonyl)piperazine-2-carboxamide]",pIC50,7.08
same,Emax,101%
"N#Cc1ccc(S(=O)(=O)N2CCN(C(=O)c3cccs3)C(C(=O)NCc3ccc4ccccc4c3)C2)cc1 (centres unmarked) [Example 89-5, 4-[(4-cyanophenyl)sulfonyl]-N-[(naphthalen-2-yl)methyl]-1-(thiophene-2-carbonyl)piperazine-2-carboxamide]",pIC50,4.00
same,Emax,23.1%
"Cc1ccccc1S(=O)(=O)N1CCN(C(=O)c2cccs2)C(C(=O)NCc2ccc3ccccc3c2)C1 (centres unmarked) [Example 89-3, 4-[(2-methylphenyl)sulfonyl]-N-[(naphthalen-2-yl)methyl]-1-(thiophene-2-carbonyl)piperazine-2-carboxamide]",pIC50,5.18
same,Emax,82.7%
